{"source": "patent US9551711B2", "about": "“Compositions and methods for detecting nitration of PKG-1α and methods of use thereof” (Augusta University Research Institute, Inc., priority 2013, dated 2017)", "target": "T1, PKG-1α (Homo sapiens, UniProt Q13976, Y247F)", "T1 sequence (Q13976 2-671 Y247F)": "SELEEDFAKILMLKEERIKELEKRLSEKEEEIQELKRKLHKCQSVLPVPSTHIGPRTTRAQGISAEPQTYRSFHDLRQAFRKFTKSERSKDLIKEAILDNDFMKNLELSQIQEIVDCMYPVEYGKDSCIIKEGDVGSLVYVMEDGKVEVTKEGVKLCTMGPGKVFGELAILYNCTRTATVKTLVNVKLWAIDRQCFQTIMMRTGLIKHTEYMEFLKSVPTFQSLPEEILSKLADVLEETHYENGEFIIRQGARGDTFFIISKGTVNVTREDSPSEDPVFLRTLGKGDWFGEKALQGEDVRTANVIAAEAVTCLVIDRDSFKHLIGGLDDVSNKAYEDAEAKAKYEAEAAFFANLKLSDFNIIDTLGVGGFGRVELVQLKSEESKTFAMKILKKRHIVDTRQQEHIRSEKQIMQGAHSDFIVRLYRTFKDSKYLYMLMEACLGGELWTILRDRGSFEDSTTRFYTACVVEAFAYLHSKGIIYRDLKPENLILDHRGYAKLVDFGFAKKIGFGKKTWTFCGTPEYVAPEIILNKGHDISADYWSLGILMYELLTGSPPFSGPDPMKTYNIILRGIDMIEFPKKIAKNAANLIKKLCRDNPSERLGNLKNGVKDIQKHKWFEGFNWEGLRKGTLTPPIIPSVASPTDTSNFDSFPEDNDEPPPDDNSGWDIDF", "assay": "PKG catalytic activity, Michaelis-Menten kinetics for cGMP", "format": "biochemical", "set-up": "made in house; host or cells: HEK-293T", "settings": "Y247F mutant upon SIN-1 treatment", "experimental": "Total PKG activity was determined using a non-radioactive immunoassay in cell lysates, according to the manufacturer's directions. Briefly, protein samples were diluted in kinase reaction buffer containing Mg^2+ and ATP (125 μM) in the presence or absence of 8-Br cGMP (10 μM) and incubated in a 96 well plate pre-coated with a PKG substrate containing threonine residues phosphorylated by PKG.\nAfter incubation for 30 min at 30° C. to allow the phosphorylation of the bound substrate, an HRP conjugated anti-phosphothreonine specific antibody was added to convert a chromogenic substrate to a colorimetric substrate that was subsequently read spectrophotometrically at 450 nm. The change in absorbance reflected the relative activity of PKG in the sample. The results were reported as pmols of phosphate incorporated into the GST-G substrate fusion protein by active PKG in the sample in the presence or absence of cGMP (10 μM) per minute at 30° C. per μg of protein (pmol/min/μg). […] The kinetic constants were determined using nonlinear regression (curve fit) analysis (GraphPad Prism Software Inc.).\nTo determine the Michaelis-Menten constant (Km) for cGMP, the kinase assay was performed, as mentioned above; however, the cGMP concentration was titrated from 0-10 μM, while the ATP concentration remained constant at 125 μM."}
{"substance": "3-morpholinosydnonimine N-ethylcarbamide [SIN-1]", "values": [{"measurement": "change of Michaelis-Menten constant (Km) for cGMP", "result": "no significant change"}]}
